Measurements: US20110263520A1, “COMPOSITION FOR USE IN CONTROLLING HARMFUL ORGANISMS THAT CONTAINS 16-KETO ASPERGILLIMIDE” (priority 2008, published 2011)
Read-outs that look alike come from different tables or passages of the source.

Key:
Nephotettix cincticeps [1] = assay: Foliage application test, Nephotettix cincticeps (Reference Test Example 8); type: in vivo
Description: (§1) A test solution adjusted to a predetermined concentration (10% aqueous acetone solution) was applied to rice seedlings in pot culture. […] The test was duplicated.
The death rate against larvae at the second instar born of Nephotettix cincticeps was calculated in the same manner as in Reference Test Example 7.

[2] = system: Nilaparvata lugens which is low-sensitive to imidacloprid; assay: Foliage application test for Nilaparvata lugens, imidacloprid low-sensitive strain (Test Example 4); type: in vivo; conditions: for Death rate (%): low-sensitive strain, 6 days after release
Description: (§2) Test solutions adjusted to a predetermined concentration (50% aqueous acetone solution) applied to rice seedlings in a pot for foliage application. […] The test was duplicated.
(§3) For comparison, a test was carried out in the same manner as described above, except that a Nilaparvata lugens strain which is highly sensitive to imidacloprid was used.
(§4) Regarding the origin of the test insect pests, Nilaparvata lugens which is low-sensitive to imidacloprid was an insect which had been collected outdoors in Kumamoto Prefecture, 2007, and Nilaparvata lugens which is sensitive to imidacloprid was an insect which had been collected in Kagoshima Prefecture and was then subjected to indoor successive raising.

[3] = system: Frankliniella occidentalis; assay: Soil drenching application test, Frankliniella occidentalis (Reference Test Example 6); type: in vivo
Description: A test solution adjusted to a predetermined concentration (10% aqueous acetone solution) was applied to cucumber seedlings in pot couture by soil drenching. The cucumber seedlings were allowed to stand for 4 days. A leaf disk having a diameter of 2.8 cm was then cut out from cucumber seedlings, and first instar larvae were released. […] The test was duplicated.

[4] = system: Trigonotylus caelestialium; assay: Root dipping application test, Trigonotylus caelestialium (Reference Test Example 2); type: in vivo
Description: (§5) A test solution adjusted to a predetermined concentration (10% aqueous acetone solution) was applied to the root of wheat seedlings in water culture. […] The test was duplicated.

Sogatella furcifera [5] = assay: Soil drenching application test, Sogatella furcifera (Reference Test Example 4); type: in vivo
Description: (§6) A test solution adjusted to a predetermined concentration (10% aqueous acetone solution) was applied to rice seedlings in a pot by soil drenching. The rice seedlings were allowed to stand for 3 days. […] The test was duplicated.
The death rate against larvae at the second instar born of Sogatella furcifera was calculated in the same manner as in Reference Test Example 3.

Nephotettix cincticeps [6] = assay: Soil drenching application test, Nephotettix cincticeps (Reference Test Example 5); type: in vivo
Description: as §6
The death rate against second instar larvae was calculated in the same manner as in Reference Test Example 3.

Aphis gossypii = assay: Foliage application test for Aphis gossypii, cucumber leaf disk (Test Example 3); type: in vivo; conditions: 16-keto aspergillimide 1.25 ppm alone
Description: Test solutions adjusted to a predetermined concentration (50% aqueous acetone solution; 0.05% Tween 20 added) were applied to a leaf disk having a diameter of 2.0 cm cut out from a cucumber grown in a pot.
(§7) Colby's formula: Theoretical value (%)=100−(A×B)/100

Laodelphax striatellus [7] = assay: Laodelphax striatellus soil drenching application test (Test Example 1); conditions: 16-keto aspergillimide 0.2 mg/seedling alone
Description: Test solutions adjusted to a predetermined concentration (10% aqueous acetone solution) were applied to rice seedling in a pot by soil drenching. The rice seedling was allowed to stand for 3 days. Second instar larvae were released and was then allowed to stand in a humidistat chamber (light period 16 hr−dark period 8 hr) (25° C.).
Death rate (%)={number of dead larvae/(number of survived larvae+number of dead larvae)}×100
wherein A: 100−(death rate when application was performed only with 16-keto aspergillimide); and

[8] = system: Frankliniella occidentalis; assay: Foliage application test, Frankliniella occidentalis, haricot leaf disk (Reference Test Example 9); type: in vivo
Description: A leaf disk having a diameter of 2.8 cm was cut out from haricot in pot culture, and a test solution adjusted to a predetermined concentration (50% aqueous acetone solution, with 0.05% Tween 20 added) was applied thereto. The leaf disk was air-air dried, and first instar larvae were released.

Nilaparvata lugens = assay: Soil drenching application test, Nilaparvata lugens (Reference Test Example 3); type: in vivo
Description: as §6

Laodelphax striatellus [9] = assay: Foliage application test for Laodelphax striatellus (Test Example 2); type: in vivo; conditions: 16-keto aspergillimide 2.5 ppm alone
Description: as §7

Laodelphax striatellus [10] = assay: Root dipping application test, Laodelphax striatellus (Reference Test Example 1); type: in vivo
Description: as §5
As is apparent from Table 15, the systemic insecticidal activity of 16-keto aspergillimide was much higher than that of a control compound, Asperparaline A.
The 16-keto aspergillimide and Asperparaline A used in this test were obtained according to methods described in The Journal of Antibiotics, 1997, 50(10), 840-846. This is true of the following test examples.

Sogatella furcifera [11] = assay: Foliage application test, Sogatella furcifera (Reference Test Example 7); type: in vivo
Description: as §1

[12] = system: Haemaphysalis longicornis; assay: Tickicidal effect against Haemaphysalis longicornis on body surface of mouse (Test Example 6); type: in vivo; conditions: for Death rate (%): mouse body surface, 3 days after release
Description: Skin hair on the back of mouse (ICR, male, 5 week olds) was clipped in a diameter of about 2 cm, and a 15-mL polystyrene conical tube cut to have a height of about 1.5 cm was bonded to the body surface of the mouse with an instant adhesive. Test solutions (20 μl) adjusted with ethanol were dropped on the body surface of mice within the bonded tube. After thorough drying, larvae (10 or more heads) were released within the tube, and the tube was lidded. […] The test was hexaplicated.
as §7

[13] = system: Haemaphysalis longicornis; assay: Tickcidal effect against Haemaphysalis longicornis, dry film in glass vial (Test Example 5); type: in vivo; conditions: Haemaphysalis longicornis, 48 h, 2 days after release; for pest or weed control at 1 ppm: 16-keto aspergillimide 1 ppm alone; for pest or weed control at 2 ppm: 16-keto aspergillimide 2 ppm alone
Description: Acetone solutions (30 μl) adjusted to predetermined concentrations were placed in 4 mL-volume glass vials. The vials were placed on a shaker, and a dry film of the compound was prepared on the inner wall of the vials. The vials were dried for 24 hr or more. Larvae (10 or more heads) were released in the vials, and the vials were lidded. The vials were then left to stand in a humidistat chamber (25° C., humidity 85%, fully darkened conditions). […] The test was duplicated.
as §7

[14] = system: Nilaparvata lugens which is sensitive to imidacloprid; assay: Foliage application test for Nilaparvata lugens, imidacloprid-sensitive strain (Test Example 4, comparison); type: in vivo; conditions: 6 days after release
Description: as §2, §3, §4

[15] = system: larvae at the third instar born of Haemonchus contortus; conditions: The Journal of Antibiotics, 1997, 50(10), 840-846; cited from earlier work
[16] = 100 ppm, rice seedlings, 3 days after release
[17] = 0.5 μg/seedling, wheat seedlings, 3 days after release
[18] = 1.0 mg/seedling, rice seedlings, 3 days after release
[19] = 16-keto aspergillimide 1 μg/2 cm^2 alone
[20] = read-out: Death rate (%), Table 9
[21] = read-out: Death rate (%), Table 10

C[C@H]1CC(=O)N2C[C@]34C[C@]5(CC(=O)N(C)C5=O)C(C)(C)[C@@H]3C[C@]12C(=O)N4C [16-Keto aspergillimide, 16-keto aspergillimide]
insecticidal activity in foliage application (Nephotettix cincticeps [1]): exhibited insecticidal activity | Death rate (%) (Nephotettix cincticeps [1]; [16]): 100% | death rate for the low-sensitive strain compared with the high-sensitive strain ([2]; Table 7 against Table 8): the same | Death rate (%) ([2]; treatment concentration 5 ppm): 60% | Death rate (%) ([2]; treatment concentration 20 ppm): 95% | Death rate (%) ([2]; treatment concentration 50 ppm): 100% | systemic insecticidal activity [3]: exhibited systemic insecticidal activity | Death rate (%) ([3]; 2.0 mg/seedling, cucumber seedlings, 6 days after release): 100% | systemic insecticidal activity [4]: exhibited systemic insecticidal activity | Death rate (%) [4, 17]: 100% | systemic insecticidal activity (Sogatella furcifera [5]): exhibited systemic insecticidal activity | Death rate (%) (Sogatella furcifera [5]; [18]): 100% | systemic insecticidal activity (Nephotettix cincticeps [6]): exhibited systemic insecticidal activity | Death rate (%) (Nephotettix cincticeps [6]; [18]): 100% | Theoretical value calculated by the Colby's formula (%) (Aphis gossypii): 26% | Death rate (%) (Aphis gossypii; leaf disk, 3 days after release): 26% | Theoretical value (%) calculated by the Colby's formula (Laodelphax striatellus [7]): 30% | Death rate (%) (Laodelphax striatellus [7]; soil drenching, 3 days after release): 30% | Death rate (%) ([8]; 100 ppm, haricot leaf disk, 3 days after release): 100% | insecticidal activity by foliage application ([8]; foliage application): exhibited insecticidal activity | systemic insecticidal activity (Nilaparvata lugens): exhibited systemic insecticidal activity | Death rate (%) (Nilaparvata lugens; [18]): 100% | Theoretical value (%) calculated by the Colby's formula (Laodelphax striatellus [9]): 65% | Death rate (%) (Laodelphax striatellus [9]; foliage application, 3 days after release): 65% | Death rate (%) for each amount of test chemical compound (Laodelphax striatellus [10]; [17]): 100% | systemic insecticidal activity compared with control compound Asperparaline A (Laodelphax striatellus [10]; Table 15): much higher | insecticidal activity by foliage application (Sogatella furcifera [11]): exhibited insecticidal activity | Death rate (%) (Sogatella furcifera [11]; [16]): 100% | Theoretical value (%) by Colby's formula [12, 19]: 22% | Death rate (%) [12, 19]: 22% | Death rate (%) ([12]; 16-keto aspergillimide 2 μg/2 cm^2 alone): 57% | Theoretical value (%) by Colby's formula ([12]; 16-keto aspergillimide alone): 57% | pest or weed control at 1 ppm [13, 20]: 10% | pest or weed control at 2 ppm [13, 20]: 17% | pest or weed control at 1 ppm [13, 21]: 14% | pest or weed control at 2 ppm [13, 21]: 20% | Death rate (%) ([14]; treatment concentration 5 ppm): 95% | Death rate (%) ([14]; treatment concentration 20 ppm): 100% | Death rate (%) ([14]; treatment concentration 50 ppm): 100% | anthelmintic activity [15]: anthelmintically active
